{"source": "patent US20090270312A1", "about": "“HIV-I GP41 FUSION PEPTIDES FOR IMMUNOMODULALTION” (priority 2005, published 2009)", "key": {"[1]": {"system": "lymph node cells (LNC)", "assay": "T-cell proliferation of mice LNC with MOG 35-55 peptide antigen", "assay_type": "cell-based", "conditions": "MOG35-55 peptide"}, "[2]": {"system": "lymph node cells (LNC)", "assay": "T-cell proliferation of LNC from Mt immunized rats ([methyl-3H]-thymidine incorporation)", "assay_type": "cell-based", "conditions": "rat LNC, PPD 25 μg/ml", "method": "T-cell proliferation. T-cell proliferation assays were performed using either lymph node cells (LNC) or the A2b T cell line, which reacts with the Mt176-90 peptide. Popliteal and inguinal LNC were removed 26 days after the injection of Mt in incomplete Freund's adjuvant (IFA), when strong T cell responses to PPD and Mt176-90 are detectable (Quintana et al., 2002). LNC were cultured at a concentration of 2×10^5 cells per well; 5×10^4 A2b T cells were stimulated in the presence of irradiated 5×10^5 thymic antigen presenting cells (APC) per well, prepared as previously described (van Eden et al., 1985). The cells were plated in quadruplicates in 200 μl round bottom microtiter wells (Costar Corp., Cambridge, USA), with or without antigen, in the presence of various concentrations of the peptides under study. For some experiments, the cells were activated with immobilized anti-CD3 antibodies or PMA/ionomycin as described (Wang et al., 2002). Cultures were incubated for 72 hr at 37° C. in a humidified atmosphere of 7.5% CO2. T-cell responses were detected by the incorporation of [methyl-3H]-thymidine (Amersham, Buckinghamshire, UK; 1 μCi/well), added during the last 18 hr of incubation. The results of T cell proliferation experiments are shown as the % of inhibition of the T cell proliferation triggered by the antigenin the absence of HIV or control peptides. […]"}, "[3]": {"system": "LNC from injected rats", "assay": "T cell immunity to the injected peptide: IFN-γ secretion of LNC incubated ex vivo with the same peptide", "assay_type": "in vivo, rat", "excerpt": "Cytokine assays. Supernatants were collected after 72 hr of stimulation, and rat IL-10 and IFNγ were quantified by enzyme-linked immunosorbent assay (ELISA) using Pharmingen's OPTEIA kit (Pharmingen, San Diego, USA) as described (Quintana et al., 2002). When needed, cytokine levels are expressed as percentage of cytokine inhibition relative to cytokine levels when no peptide is present. Otherwise, the cytokines are shown as pg/ml. The lower limits of detection for the experiments described in this paper were 15 pg/ml for IL-10 and IFNγ. Cytokine amounts were calculated based on calibration curves constructed using recombinant cytokines as standards.\nRats were injected with FP, a control peptide (V2E or IFFA) or PBS in the presence of Mt and IFA. Twenty six days later, LNC were collected and incubated ex vivo with FP, V2E, IFFA, or PBS, respectively, and their IFN-γ secretion level was determined. […] LNC (incubated with PBS). […] Thus, the immunosuppressive effect of FP is sequence and structure specific."}, "[4]": {"system": "Lewis rats", "assay": "Adjuvant Arthritis (AA)", "assay_type": "in vivo, rat", "conditions": "100 μg peptide in IFA with Mt at AA induction", "method": "Induction and Assessment of Adjuvant Arthritis (AA). To test the effect of FP on T-cell activation in vivo, AA was used as a model system. AA was induced by injecting 50 μl of Mt suspended in IFA (0.5 mg/ml) at the base of the tail. At the time of AA induction, each rat also received 100 μg of FP or control peptide, or PBS dissolved in 50 μl of IFA and mixed with Mt/IFA used to induce AA. The day of AA induction was designated as day 0. Disease severity was assessed by direct observation of all 4 limbs in each animal. A relative score between 0 and 4 was assigned to each limb, based on the degree of joint inflammation, redness and deformity; thus the maximum possible score for an individual animal was 16 (Quintana et al., 2002). The mean AA score (±SEM) is shown for each experimental group. Arthritis was also quantified by measuring hind limb diameter with a caliper. Measurements were taken on the day of the induction of AA and 26 days later (at the peak of AA); the results are presented as the mean±SEM of the difference between the two values for all the animals in each group. The person who scored the disease was blinded to the identity of the groups.\nAA was induced in rats as indicated above; at the time of AA induction, each rat also received 100 μg of IFFA or PBS dissolved in 50 μl of IFA and mixed with Mt/IFA used to induce AA. Disease severity was assessed as described above."}, "[5]": {"molecular_target": "gp41 (Human immunodeficiency virus type 1 group M subtype B, UniProt P04578)", "sequence (P04578 512-856)": "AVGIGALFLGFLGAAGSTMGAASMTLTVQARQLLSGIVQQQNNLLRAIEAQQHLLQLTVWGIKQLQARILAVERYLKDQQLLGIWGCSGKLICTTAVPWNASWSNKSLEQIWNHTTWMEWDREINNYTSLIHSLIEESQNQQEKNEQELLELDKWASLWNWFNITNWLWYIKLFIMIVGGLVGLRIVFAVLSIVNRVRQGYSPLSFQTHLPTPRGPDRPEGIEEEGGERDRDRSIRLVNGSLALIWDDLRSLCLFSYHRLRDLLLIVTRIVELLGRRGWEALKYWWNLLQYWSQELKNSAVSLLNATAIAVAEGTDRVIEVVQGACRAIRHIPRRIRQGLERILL", "conditions": "effect of incorporation of D amino acids; cited from earlier work"}, "[6]": {"system": "Balb/c mice", "assay": "DTH response to oxazolone, dermal treatment", "assay_type": "in vivo", "conditions": "100 μg in 40 μl DMSO on the ear one hour after challenge, measured 24 h after challenge", "method": "In other experiments, DTH response to oxazolone in the presence of FP and IFFA was measured. Female Balb/c mice (5 mice per group) were sensitized to the shaved abdominal skin with 100 microliter of 2% oxazolone dissolved in acetone/olive oil (4:1 vol/vol) applied topically, and 5 days later challenged with 20 microliter of 0.5% oxazolone in acetone/olive oil, 10 microliter administered to each side of the ear. One hour after stimulation, FP, IFFA (100 μg in 40 μl DMSO) or DMSO were administered to each side of the ear. A constant area of the ear was measured immediately before challenge and 24 h after challenge."}, "[7]": {"system": "lymph node cells (LNC)", "assay": "Cell survival in culture with peptide", "assay_type": "cell-based, rat", "conditions": "cells incubated with peptide"}}, "note": "Residues, ends and D or L forms follow the SMILES beside them.", "data": [{"molecule": "GALFLGFLG (Peptides derived of HIV-1 gp41) [FP5-13]", "values": [{"measurement": "inhibition of antigen-specific T cell proliferation", "setting": "[1]", "value": "inhibit antigen-specific T cell proliferation"}]}, {"molecule": "AVGIGALFLGFLGAAGSTMGARSMTLTVQARQL [IFFA]", "values": [{"measurement": "inhibition of antigen-specific T cell proliferation", "setting": "[2]", "value": "inhibit antigen-specific T cell proliferation"}, {"measurement": "ex vivo activation relative to FP", "setting": "[3]; LNC collected 26 days after injection", "value": "about ten fold more than FP"}, {"measurement": "ex vivo activation (IFN-γ secretion) of LNC by the injected peptide", "setting": "[3]; LNC collected 26 days after injection with Mt and IFA", "value": "highly reactive to IFFA ex vivo"}, {"measurement": "arthritis, clinical score", "setting": "[4]", "value": "milder arthritis"}, {"measurement": "ability to inhibit gp41-mediated membrane fusion", "setting": "[5]", "value": "does not affect its ability to inhibit gp41-mediated membrane fusion"}, {"measurement": "DTH reaction to oxazolone", "setting": "[6]", "value": "inhibited the DTH reaction"}]}, {"molecule": "CC[C@H](C)[C@H](NC(=O)[C@H](CS)NC(=O)[C@H](CCCNC(=N)N)NC(=O)[C@H](CC(C)C)NC(=O)[C@H](CC(C)C)NC(=O)[C@H](C)NC(=O)[C@H](CS)NC(=O)CNC(=O)CNC(=O)CNC(=O)[C@H](CC(C)C)NC(=O)[C@@H](N)C(C)C)C(=O)N1CCC[C@H]1C(=O)N[C@@H](C)C(=O)N[C@@H](CC(C)C)C(=O)N[C@@H](CC(=O)O)C(=O)N[C@@H](CO)C(=O)N[C@@H](CC(C)C)C(=O)N[C@H](C(=O)N1CCC[C@H]1C(=O)N[C@@H](C)C(=O)N[C@@H](CC(N)=O)C(=O)N[C@@H](CCC(=O)O)C(=O)N[C@@H](CC(=O)O)C(=O)O)[C@@H](C)O", "note": "[p277, reference compound] (H-VLGGGCALLRCIPALDSLTPANED-OH)", "values": [{"measurement": "survival of cells in culture", "setting": "[7]", "value": "the same survival in culture"}]}, {"molecule": "CC[C@H](C)[C@H](NC(=O)CNC(=O)[C@@H](NC(=O)[C@H](C)N)C(C)C)C(=O)NCC(=O)N[C@@H](C)C(=O)N[C@@H](CC(C)C)C(=O)N[C@@H](Cc1ccccc1)C(=O)N[C@@H](CC(C)C)C(=O)NCC(=O)N[C@@H](Cc1ccccc1)C(=O)N[C@@H](CC(C)C)C(=O)NCC(=O)N[C@@H](C)C(=O)N[C@@H](C)C(=O)NCC(=O)N[C@@H](CO)C(=O)N[C@H](C(=O)N[C@@H](CCSC)C(=O)NCC(=O)N[C@@H](C)C(=O)N[C@@H](CCCNC(=N)N)C(=O)N[C@@H](CO)C(=O)N[C@@H](CCSC)C(=O)N[C@H](C(=O)N[C@@H](CC(C)C)C(=O)N[C@H](C(=O)N[C@H](C(=O)N[C@@H](CCC(N)=O)C(=O)N[C@@H](C)C(=O)N[C@@H](CCCNC(=N)N)C(=O)N[C@@H](CCC(N)=O)C(=O)N[C@@H](CC(C)C)C(=O)O)C(C)C)[C@@H](C)O)[C@@H](C)O)[C@@H](C)O", "note": "[FP]", "values": [{"measurement": "survival of cells in culture", "setting": "[7]", "value": "the same survival in culture"}]}, {"molecule": "AVGIGALF (Peptides derived of HIV-1 gp41) [FP1-8]", "values": [{"measurement": "inhibition of antigen-specific T cell proliferation", "setting": "[1]", "value": "inhibit antigen-specific T cell proliferation"}]}, {"molecule": "CC[C@H](C)[C@H](NC(=O)CNC(=O)[C@H](CCC(=O)O)NC(=O)[C@H](C)N)C(=O)NCC(=O)N[C@@H](C)C(=O)N[C@@H](CC(C)C)C(=O)N[C@@H](Cc1ccccc1)C(=O)N[C@@H](CC(C)C)C(=O)NCC(=O)N[C@@H](Cc1ccccc1)C(=O)N[C@@H](CC(C)C)C(=O)NCC(=O)N[C@@H](C)C(=O)N[C@@H](C)C(=O)NCC(=O)N[C@@H](CO)C(=O)N[C@H](C(=O)N[C@@H](CCSC)C(=O)NCC(=O)N[C@@H](C)C(=O)N[C@@H](CCCNC(=N)N)C(=O)N[C@@H](CO)C(=O)N[C@@H](CCSC)C(=O)N[C@H](C(=O)N[C@@H](CC(C)C)C(=O)N[C@H](C(=O)N[C@H](C(=O)N[C@@H](CCC(N)=O)C(=O)N[C@@H](C)C(=O)N[C@@H](CCCNC(=N)N)C(=O)N[C@@H](CCC(N)=O)C(=O)N[C@@H](CC(C)C)C(=O)O)C(C)C)[C@@H](C)O)[C@@H](C)O)[C@@H](C)O", "note": "[V2E]", "values": [{"measurement": "survival of cells in culture", "setting": "[7]", "value": "the same survival in culture"}]}]}
